Test results taken from ChEMBL document CHEMBL5608177, “Antitumor activity and transcriptome sequencing (RNA-seq) analyses of hepatocellular carcinoma cells in response to exposure triterpene-nucleoside conjugates” (Eur J Med Chem, 2024).
Active and inactive are the calls of the source. No cut-off for these calls is given here.

Columns and labels:
KYSE-150 cell line = test: Antiproliferative activity against human KYSE-150 cell line assessed as inhibition of cell growth incubated for 48 hrs by CCK-8 reagent based spectrophotometric analysis; type: functional; conditions: KYSE-150, 48 h
HeLa = test: Antiproliferative activity against human HeLa cells assessed as inhibition of cell growth incubated for 48 hrs by CCK-8 reagent based spectrophotometric analysis; type: functional
HepG2 = test: Antiproliferative activity against human HepG2 cells assessed as inhibition of cell growth incubated for 48 hrs by CCK-8 reagent based spectrophotometric analysis; type: functional; conditions: HepG2, 48 h
MCF7 = test: Antiproliferative activity against human MCF7 cells assessed as inhibition of cell growth incubated for 48 hrs by CCK-8 reagent based spectrophotometric analysis; type: functional; conditions: MCF7, 48 h
SW-620 = test: Antiproliferative activity against human SW620 cells assessed as inhibition of cell growth incubated for 48 hrs by CCK-8 reagent based spectrophotometric analysis; type: functional; conditions: SW-620, 48 h
A549 = test: Antiproliferative activity against human A549 cells assessed as inhibition of cell growth incubated for 48 hrs by CCK-8 reagent based spectrophotometric analysis; type: functional; conditions: A549, 48 h
SMMC-7721 [1] = test: Induction of apoptosis in human SMMC-7721 cells assessed as viable cells at 20 uM incubated for 24 hrs by Annexin V-FITC and propidium iodide staining based flow cytometric analysis (reference value: 99 %); type: functional; conditions: read-out: Activity
SMMC-7721 [2] = test: Induction of apoptosis in human SMMC-7721 cells assessed as early apoptotic cells at 5 uM incubated for 24 hrs by Annexin V-FITC and propidium iodide staining based flow cytometric analysis (reference value: 0.28 %); type: functional
SMMC-7721 [3] = test: Induction of apoptosis in human SMMC-7721 cells assessed as early apoptotic cells at 10 uM incubated for 24 hrs by Annexin V-FITC and propidium iodide staining based flow cytometric analysis (reference value: 0.28 %); type: functional
SMMC-7721 [4] = test: Induction of apoptosis in human SMMC-7721 cells assessed as early apoptotic cells at 20 uM incubated for 24 hrs by Annexin V-FITC and propidium iodide staining based flow cytometric analysis (reference value: 0.28 %); type: functional
SMMC-7721 [5] = test: Induction of apoptosis in human SMMC-7721 cells assessed as necrotic cells at 10 uM incubated for 24 hrs by Annexin V-FITC and propidium iodide staining based flow cytometric analysis (reference value: 0.61 %); type: functional
SMMC-7721 [6] = test: Induction of apoptosis in human SMMC-7721 cells assessed as late apoptotic cells at 5 uM incubated for 24 hrs by Annexin V-FITC and propidium iodide staining based flow cytometric analysis (reference value: 0.14 %); type: functional
SMMC-7721 [7] = test: Induction of apoptosis in human SMMC-7721 cells assessed as late apoptotic cells at 10 uM incubated for 24 hrs by Annexin V-FITC and propidium iodide staining based flow cytometric analysis (reference value: 0.14 %); type: functional
SMMC-7721 [8] = test: Induction of apoptosis in human SMMC-7721 cells assessed as necrotic cells at 20 uM incubated for 24 hrs by Annexin V-FITC and propidium iodide staining based flow cytometric analysis (reference value: 0.61 %); type: functional
SMMC-7721 [9] = test: Induction of apoptosis in human SMMC-7721 cells assessed as viable cells at 15 uM incubated for 24 hrs by Annexin V-FITC and propidium iodide staining based flow cytometric analysis (reference value: 99.2 %); type: functional; conditions: read-out: Activity
SMMC-7721 [10] = test: Induction of apoptosis in human SMMC-7721 cells assessed as viable cells at 15 uM incubated for 24 hrs in presence of Nec1 by Annexin V-FITC and propidium iodide staining based flow cytometric analysis (reference value: 99.2 %); type: functional; conditions: read-out: Activity
SMMC-7721 [11] = test: Induction of apoptosis in human SMMC-7721 cells assessed as early apoptotic cells at 15 uM incubated for 24 hrs by Annexin V-FITC and propidium iodide staining based flow cytometric analysis (reference value: 0.07 %); type: functional
SMMC-7721 [12] = test: Induction of apoptosis in human SMMC-7721 cells assessed as early apoptotic cells at 15 uM incubated for 24 hrs in presence of 3-MA by Annexin V-FITC and propidium iodide staining based flow cytometric analysis (reference value: 0.07 %); type: functional
SMMC-7721 [13] = test: Induction of apoptosis in human SMMC-7721 cells assessed as early apoptotic cells at 15 uM incubated for 24 hrs in presence of zVAD by Annexin V-FITC and propidium iodide staining based flow cytometric analysis (reference value: 0.07 %); type: functional
SMMC-7721 [14] = test: Induction of apoptosis in human SMMC-7721 cells assessed as late apoptotic cells at 15 uM incubated for 24 hrs by Annexin V-FITC and propidium iodide staining based flow cytometric analysis (reference value: 0.09 %); type: functional
SMMC-7721 [15] = test: Induction of apoptosis in human SMMC-7721 cells assessed as late apoptotic cells at 15 uM incubated for 24 hrs in presence of 3-MA by Annexin V-FITC and propidium iodide staining based flow cytometric analysis (reference value: 0.09 %); type: functional
SMMC-7721 [16] = test: Induction of apoptosis in human SMMC-7721 cells assessed as late apoptotic cells at 15 uM incubated for 24 hrs in presence of zVAD by Annexin V-FITC and propidium iodide staining based flow cytometric analysis (reference value: 0.09 %); type: functional
SMMC-7721 [17] = test: Induction of apoptosis in human SMMC-7721 cells assessed as late apoptotic cells at 15 uM incubated for 24 hrs in presence of Nec1 by Annexin V-FITC and propidium iodide staining based flow cytometric analysis (reference value: 0.09 %); type: functional
SMMC-7721 [18] = test: Induction of apoptosis in human SMMC-7721 cells assessed as necrotic cells at 15 uM incubated for 24 hrs by Annexin V-FITC and propidium iodide staining based flow cytometric analysis (reference value: 0.65 %); type: functional
SMMC-7721 [19] = test: Induction of apoptosis in human SMMC-7721 cells assessed as necrotic cells at 15 uM incubated for 24 hrs in presence of zVAD by Annexin V-FITC and propidium iodide staining based flow cytometric analysis (reference value: 0.65 %); type: functional
SMMC-7721 [20] = test: Induction of apoptosis in human SMMC-7721 cells at 10 uM incubated for 24 hrs by Annexin V-FITC and propidium iodide staining based flow cytometric analysis relative to control; type: functional
SMMC-7721 [21] = test: Induction of apoptosis in human SMMC-7721 cells at 20 uM incubated for 24 hrs by Annexin V-FITC and propidium iodide staining based flow cytometric analysis relative to control; type: functional
SMMC-7721 [22] = test: Induction of autophagy in human SMMC-7721 cells assessed as cell structure destruction at 10 uM incubated for 24 hrs by TEM analysis; type: functional, cell-based
SMMC-7721 [23] = test: Induction of autophagy in human SMMC-7721 cells assessed as appearance of sparse matrix at 10 uM incubated for 24 hrs by TEM analysis; type: functional, cell-based
SMMC-7721 [24] = test: Induction of autophagy in human SMMC-7721 cells assessed as formation of autolysosomes at 10 uM incubated for 24 hrs by TEM analysis; type: functional, cell-based
SMMC-7721 [25] = test: Induction of autophagy in human SMMC-7721 cells assessed as formation of autophagosome at 10 uM incubated for 24 hrs by TEM analysis; type: functional, cell-based
[26] = Toxicity in Zebrafish embryo assessed as reduction in survival rate at upto 100 uM incubated for 48 hrs by microscopic analysis; parameters: species or system Danio rerio; conditions: in vivo

Row | SMILES | IC50 (KYSE-150 cell line) | IC50 (HeLa) | IC50 (HepG2) | IC50 (MCF7) | IC50 (SW-620) | IC50 (A549) | viability at 20 µM (SMMC-7721 [1]) | Activity (SMMC-7721 [2]) | Activity (SMMC-7721 [3]) | Activity (SMMC-7721 [4]) | Activity (SMMC-7721 [5]) | Activity (SMMC-7721 [6]) | Activity (SMMC-7721 [7]) | Activity (SMMC-7721 [8]) | viability at 15 µM (SMMC-7721 [9]) | viability at 15 µM (SMMC-7721 [10]) | Activity (SMMC-7721 [11]) | Activity (SMMC-7721 [12]) | Activity (SMMC-7721 [13]) | Activity (SMMC-7721 [14]) | also measured
1 | C=C(C)[C@@H]1CC[C@]2(C(=O)OC)CC[C@]3(C)[C@H](CC[C@@H]4[C@@]5(C)C[C@@H](Cc6cn([C@H]7C[C@H](n8cc(C)c(O)nc8=O)O[C@@H]7CO)nn6)C(=O)C(C)(C)[C@@H]5CC[C@]43C)[C@@H]12 | 5.68 µM | 6.07 µM | 9.55 µM | 9.78 µM | 4.61 µM | 11.9 µM | 58% | 0.24% | 0.48% | 0.089% | 1.48% | 0.77% | 6.31% | 23% | 68.2% | 83.6% | 0.04% | 0.23% | 0.04% | 15.2% | Activity (SMMC-7721 [15]): 6.4%; Activity (SMMC-7721 [16]): 2.77%; Activity (SMMC-7721 [17]): 10.8%; Activity (SMMC-7721 [18]): 16.6%; Activity (SMMC-7721 [19]): 9.33%; Activity (SMMC-7721 [20]): 0.54%; Activity (SMMC-7721 [21]): 0.54%; Activity (SMMC-7721 [22]): Active; Activity (SMMC-7721 [23]): Active; Activity (SMMC-7721 [24]): Active; Activity (SMMC-7721 [25]): Active; Activity [26]: Non-Toxic
2 | C=C(C)[C@@H]1CC[C@]2(C(=O)OC)CC[C@]3(C)[C@H](CC[C@@H]4[C@@]5(C)C[C@@H](Cc6cn([C@]7(CO)O[C@@H](n8ccc(O)nc8=O)[C@@H](F)[C@@H]7O)nn6)C(=O)C(C)(C)[C@@H]5CC[C@]43C)[C@@H]12 | 10.6 µM | 11.8 µM | 23.7 µM | 18.6 µM | 10.9 µM | 17.7 µM | 62.3% | 0.13% | 0.35% | 0.43% | 2.69% | 0.16% | 0.78% | 19.8% | 72.8% | 87.4% | 0.06% | 0.05% | 0.03% | 11.4% | Activity (SMMC-7721 [15]): 2.54%; Activity (SMMC-7721 [16]): 8.65%; Activity (SMMC-7721 [17]): 9.13%; Activity (SMMC-7721 [18]): 15.7%; Activity (SMMC-7721 [19]): 9.3%; Activity (SMMC-7721 [20]): 0.42%; Activity (SMMC-7721 [21]): 0.42%; Activity (SMMC-7721 [22]): Active; Activity (SMMC-7721 [23]): Active; Activity (SMMC-7721 [24]): Active; Activity (SMMC-7721 [25]): Active; Activity [26]: Non-Toxic
